Assay [1] concerns the target human Gal-3 (hGal-3) (Homo sapiens (Human), UniProt P17931). Nature of the assay: Competitive binding assay: biotinylated hGal-3 binding to microplate-adsorbed asialofetuin (ASF). As to conditions: Activity on hGal-3; binding of biotinylated hGal-3 to ASF-coated plates; mean values. The essentials:
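Serially diluted compounds competed with biotinylated human Gal-3 for binding to plate-adsorbed asialofetuin over 3 h at 4 °C. Bound Gal-3 was detected with streptavidin-peroxidase (80 ng/mL, 1 h, 4 °C) and ABTS substrate. IC50 values are means of several measurements.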

Assay [2] concerns the target human Gal-1 (hGal-1). Nature of the assay: Competitive binding assay: biotinylated hGal-1 binding to microplate-adsorbed asialofetuin (ASF). To be noted: Activity on hGal-1; binding of biotinylated hGal-1 to ASF-coated plates; mean values. The essentials:
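Inhibition measured as loss of hGal-1 (biotinylated, 300–1000 ng/mL, wild type or Cys→Ser mutant) binding to adsorbed asialofetuin over 3 h at 4 °C. Bound lectin detected with streptavidin-HRP and ABTS (410 nm, 30–45 min); IC50 values averaged across repeat measurements.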

Results on 16 compounds are retold here after patent US12291519B2, “2-hydroxycycloalkane-1-carbamoyl” (Idorsia Pharmaceuticals Ltd, priority 2019, dated 2025).

Chain of human Gal-1 (hGal-1) (P09382 2-135 limits assumed): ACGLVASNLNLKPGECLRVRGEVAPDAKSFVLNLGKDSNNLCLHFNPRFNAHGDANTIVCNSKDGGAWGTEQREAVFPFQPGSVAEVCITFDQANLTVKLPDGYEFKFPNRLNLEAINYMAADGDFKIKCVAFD
Chain of human Gal-3 (hGal-3) (P17931 whole entry): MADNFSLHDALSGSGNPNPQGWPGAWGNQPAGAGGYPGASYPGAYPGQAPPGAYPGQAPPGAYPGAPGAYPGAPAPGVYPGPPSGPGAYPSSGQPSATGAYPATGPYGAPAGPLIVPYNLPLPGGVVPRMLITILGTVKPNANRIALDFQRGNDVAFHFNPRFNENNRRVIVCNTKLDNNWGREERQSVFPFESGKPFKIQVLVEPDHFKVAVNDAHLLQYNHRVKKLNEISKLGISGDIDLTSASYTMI

As for `CO[C@@H]1[C@@H](n2cc(-c3ccc(C)c(F)c3)nn2)[C@@H](O)[C@@H](CO)O[C@H]1C(=O)N(c1cc(Cl)cc(C#N)c1)[C@H]1CCCC[C@@H]1O` [Example 170, (2R,3R,4S,5R,6R)-N-(3-chloro-5-cyanophenyl)-4-(4-(3-fluoro-4-methylphenyl)-1H-1,2,3-triazol-1-yl)-5-hydroxy-N-((1S,2S)-2-hydroxycyclohexyl)-6-(hydroxymethyl)-3-methoxytetrahydro-2H-pyran-2-carboxamide], the IC50 is 18 nM in assay [1] and 569 nM in assay [2].
Take `CO[C@@H]1[C@@H](n2cc(-c3ccc(C)c(F)c3F)nn2)[C@@H](O)[C@@H](CO)O[C@H]1C(=O)N(c1cc(Cl)cc(C#N)c1)[C@H]1CCCC[C@@H]1O` [Example 171, (2R,3R,4S,5R,6R)-N-(3-chloro-5-cyanophenyl)-4-(4-(2,3-difluoro-4-methylphenyl)-1H-1,2,3-triazol-1-yl)-5-hydroxy-N-((1S,2S)-2-hydroxycyclohexyl)-6-(hydroxymethyl)-3-methoxytetrahydro-2H-pyran-2-carboxamide]: the IC50 in assay [1] was determined as 12 nM; in assay [2] it was 238 nM.
For `Cc1ccc(-c2cn([C@H]3[C@@H](O)[C@@H](CO)O[C@@H](C(=O)N(c4cc(Cl)cc(C#N)c4)[C@H]4CCCC[C@@H]4O)[C@@H]3OCC(=O)O)nn2)c(F)c1F` [Example 172, 2-(((2R,3R,4S,5R,6R)-2-((3-chloro-5-cyanophenyl)((1S,2S)-2-hydroxycyclohexyl)carbamoyl)-4-(4-(2,3-difluoro-4-methylphenyl)-1H-1,2,3-triazol-1-yl)-5-hydroxy-6-(hydroxymethyl)tetrahydro-2H-pyran-3-yl)oxy)acetic acid], the IC50 in assay [1] came out at 11 nM; in assay [2] it was 421 nM.
As for `Cc1ccc(-c2cn([C@H]3[C@@H](O)[C@@H](CO)O[C@@H](C(=O)N(c4cc(Cl)cc(C#N)c4)[C@H]4CCCC[C@@H]4O)[C@@H]3OCC(=O)N3CCOCC3)nn2)c(F)c1F` [Example 173, (2R,3R,4S,5R,6R)-N-(3-chloro-5-cyanophenyl)-4-(4-(2,3-difluoro-4-methylphenyl)-1H-1,2,3-triazol-1-yl)-5-hydroxy-N-((1S,2S)-2-hydroxycyclohexyl)-6-(hydroxymethyl)-3-(2-morpholino-2-oxoethoxy)tetrahydro-2H-pyran-2-carboxamide], the figures for the IC50 in assay [1] and in assay [2] were 9 nM and 509 nM, respectively.
With `COc1cc(F)c(F)cc1-c1cn([C@H]2[C@@H](O)[C@@H](CO)O[C@@H](C(=O)N(c3cc(Cl)cc(C#N)c3)[C@H]3CCCC[C@@H]3O)[C@@H]2OC)nn1` [Example 174, (2R,3R,4S,5R,6R)-N-(3-chloro-5-cyanophenyl)-4-(4-(4,5-difluoro-2-methoxyphenyl)-1H-1,2,3-triazol-1-yl)-5-hydroxy-N-((1S,2S)-2-hydroxycyclohexyl)-6-(hydroxymethyl)-3-methoxytetrahydro-2H-pyran-2-carboxamide], the figures for the IC50 in assay [1] and in assay [2] were 40 nM and 750 nM, respectively.
Turning to `CO[C@@H]1[C@@H](n2cc(-c3ccc(Br)c(F)c3F)nn2)[C@@H](O)[C@@H](CO)O[C@H]1C(=O)N(c1cc(Cl)cc(C#N)c1)[C@H]1CCCC[C@@H]1O` [Example 175, (2R,3R,4S,5R,6R)-4-(4-(4-bromo-2,3-difluorophenyl)-1H-1,2,3-triazol-1-yl)-N-(3-chloro-5-cyanophenyl)-5-hydroxy-N-((1S,2S)-2-hydroxycyclohexyl)-6-(hydroxymethyl)-3-methoxytetrahydro-2H-pyran-2-carboxamide], the 50% inhibitory concentration (IC50) in assay [1] amounted to 13 nM; in assay [2] it was 386 nM.
Take `CO[C@@H]1[C@@H](n2cc(-c3ccc(Br)c(F)c3F)nn2)[C@@H](O)[C@@H](CO)O[C@H]1C(=O)N(c1cc(F)cc(C#N)c1)[C@H]1CCCC[C@@H]1O` [Example 176, (2R,3R,4S,5R,6R)-4-(4-(4-bromo-2,3-difluorophenyl)-1H-1,2,3-triazol-1-yl)-N-(3-cyano-5-fluorophenyl)-5-hydroxy-N-((1S,2S)-2-hydroxycyclohexyl)-6-(hydroxymethyl)-3-methoxytetrahydro-2H-pyran-2-carboxamide]: the values for the IC50 in assay [1] and in assay [2] were 15 nM and 682 nM, respectively.
As for `CO[C@@H]1[C@@H](n2cc(-c3ccc(Br)c(F)c3F)nn2)[C@@H](O)[C@@H](CO)O[C@H]1C(=O)N(c1cc(Cl)cc(Cl)c1)[C@H]1CCCC[C@@H]1O` [Example 177, (2R,3R,4S,5R,6R)-4-(4-(4-bromo-2,3-difluorophenyl)-1H-1,2,3-triazol-1-yl)-N-(3,5-dichlorophenyl)-5-hydroxy-N-((1S,2S)-2-hydroxycyclohexyl)-6-(hydroxymethyl)-3-methoxytetrahydro-2H-pyran-2-carboxamide], the IC50 in assay [1] amounted to 13 nM; in assay [2], 852 nM.
On to `CO[C@@H]1[C@@H](n2cc(-c3ccc(Cl)c(F)c3F)nn2)[C@@H](O)[C@@H](CO)O[C@H]1C(=O)N(c1cc(Cl)cc(C#N)c1)[C@H]1CCCC[C@@H]1O` [Example 178, (2R,3R,4S,5R,6R)-4-(4-(4-chloro-2,3-difluorophenyl)-1H-1,2,3-triazol-1-yl)-N-(3-chloro-5-cyanophenyl)-5-hydroxy-N-((1S,2S)-2-hydroxycyclohexyl)-6-(hydroxymethyl)-3-methoxytetrahydro-2H-pyran-2-carboxamide], for which the figures for the IC50 in assay [1] and in assay [2] were 26 nM and 123 nM, respectively.
On to `CO[C@@H]1[C@@H](n2cc(-c3ccc(Cl)c(F)c3)nn2)[C@@H](O)[C@@H](CO)O[C@H]1C(=O)N(c1cc(Cl)cc(Cl)c1)[C@H]1CCCC[C@@H]1O` [Example 179, (2R,3R,4S,5R,6R)-4-(4-(4-chloro-3-fluorophenyl)-1H-1,2,3-triazol-1-yl)-N-(3,5-dichlorophenyl)-5-hydroxy-N-((1S,2S)-2-hydroxycyclohexyl)-6-(hydroxymethyl)-3-methoxytetrahydro-2H-pyran-2-carboxamide], for which the figures for the IC50 in assay [1] and in assay [2] were 10 nM and 591 nM, respectively.
Consider `CO[C@@H]1[C@@H](n2cc(-c3ccc(C#N)c(F)c3)nn2)[C@@H](O)[C@@H](CO)O[C@H]1C(=O)N(c1cc(Cl)cc(C#N)c1)[C@H]1CCCC[C@@H]1O` [Example 181, (2R,3R,4S,5R,6R)-N-(3-chloro-5-cyanophenyl)-4-(4-(4-cyano-3-fluorophenyl)-1H-1,2,3-triazol-1-yl)-5-hydroxy-N-((1S,2S)-2-hydroxycyclohexyl)-6-(hydroxymethyl)-3-methoxytetrahydro-2H-pyran-2-carboxamide], for which the IC50 in assay [1] amounted to 29 nM; in assay [2], 618 nM.
Regarding `CO[C@@H]1[C@@H](n2cc(-c3ccc(Cl)c(OC(F)(F)F)c3)nn2)[C@@H](O)[C@@H](CO)O[C@H]1C(=O)N(c1cc(Cl)cc(C#N)c1)[C@H]1CCCC[C@@H]1O` [Example 185, (2R,3R,4S,5R,6R)-4-(4-(4-chloro-3-(trifluoromethoxy)phenyl)-1H-1,2,3-triazol-1-yl)-N-(3-chloro-5-cyanophenyl)-5-hydroxy-N-((1S,2S)-2-hydroxycyclohexyl)-6-(hydroxymethyl)-3-methoxytetrahydro-2H-pyran-2-carboxamide], the IC50 amounted to 232 nM in assay [1] and 1370 nM in assay [2].
For `CO[C@@H]1[C@@H](n2cc(-c3ccc(Cl)c(Cl)c3)nn2)[C@@H](O)[C@@H](CO)O[C@H]1C(=O)N(c1cc(Cl)cc(C#N)c1)[C@H]1CCCC[C@@H]1O` [Example 186, (2R,3R,4S,5R,6R)-N-(3-chloro-5-cyanophenyl)-4-(4-(3,4-dichlorophenyl)-1H-1,2,3-triazol-1-yl)-5-hydroxy-N-((1S,2S)-2-hydroxycyclohexyl)-6-(hydroxymethyl)-3-methoxytetrahydro-2H-pyran-2-carboxamide], the results for the IC50 in assay [1] and in assay [2] were 17 nM and 210 nM, respectively.
For `CO[C@@H]1[C@@H](n2cc(-c3ccc(Cl)c(Cl)c3)nn2)[C@@H](O)[C@@H](CO)O[C@H]1C(=O)N(c1cc(F)cc(C#N)c1)[C@H]1CCCC[C@@H]1O` [Example 187, (2R,3R,4S,5R,6R)-N-(3-cyano-5-fluorophenyl)-4-(4-(3,4-dichlorophenyl)-1H-1,2,3-triazol-1-yl)-5-hydroxy-N-((1S,2S)-2-hydroxycyclohexyl)-6-(hydroxymethyl)-3-methoxytetrahydro-2H-pyran-2-carboxamide], the IC50 stood at 37 nM in assay [1] and 359 nM in assay [2].
Regarding `CO[C@@H]1[C@@H](n2cc(-c3ccc(Cl)c(Cl)c3)nn2)[C@@H](O)[C@@H](CO)O[C@H]1C(=O)N(c1cc(Cl)cc(Cl)c1)[C@H]1CCCC[C@@H]1O` [Example 189, (2R,3R,4S,5R,6R)-N-(3,5-dichlorophenyl)-4-(4-(3,4-dichlorophenyl)-1H-1,2,3-triazol-1-yl)-5-hydroxy-N-((1S,2S)-2-hydroxycyclohexyl)-6-(hydroxymethyl)-3-methoxytetrahydro-2H-pyran-2-carboxamide], the IC50 worked out at 11 nM in assay [1] and 257 nM in assay [2].
In the same order, the values of `CO[C@@H]1[C@@H](n2cc(-c3cc(C)cc(F)c3)nn2)[C@@H](O)[C@@H](CO)O[C@H]1C(=O)N(c1cc(Cl)cc(C#N)c1)[C@H]1CCCC[C@@H]1O` [Example 190, (2R,3R,4S,5R,6R)-N-(3-chloro-5-cyanophenyl)-4-(4-(3-fluoro-5-methylphenyl)-1H-1,2,3-triazol-1-yl)-5-hydroxy-N-((1S,2S)-2-hydroxycyclohexyl)-6-(hydroxymethyl)-3-methoxytetrahydro-2H-pyran-2-carboxamide] are 17 nM and 239 nM.
